Source: ChEMBL document CHEMBL2074325, “The multidrug resistance protein 5 functions as an ATP-dependent export pump for cyclic nucleotides” (J Biol Chem, 2000)

Columns and labels:
Format in all cases: functional, cell membranes, Membrane vesicle
Set-up in all cases: scale not given: the % may be the effect or the level left
MRP5 (ABCC5) [1] = biological target: T1, MRP5 (ABCC5) (Homo sapiens, UniProt O15440); assay: TP_TRANSPORTER: inhibition of cGMP uptake (cGMP: 5 uM, Sildenafil: 1 uM) in membrane vesicles from MRP5-expressing V79 cells; settings: hamster, probe cGMP (5 uM), read-out: Activity
MRP5 (ABCC5) [2] = biological target: T1, MRP5 (ABCC5); assay: TP_TRANSPORTER: inhibition of cGMP uptake (cGMP: 5 uM, Fluorescein diacetate: 50 uM) in membrane vesicles from MRP5-expressing V79 cells; settings: hamster, probe cGMP (5 uM), read-out: Activity
[3] = biological target: ATP-binding cassette sub-family C member 5 (Homo sapiens, UniProt O15440); assay: TP_TRANSPORTER: inhibition of cGMP uptake (cGMP: 5 uM, Probenecid: 50 uM) in membrane vesicles from MRP5-expressing V79 cells; settings: hamster, v79, 50 µM
MRP5 (ABCC5) [4] = biological target: T1, MRP5 (ABCC5); assay: TP_TRANSPORTER: inhibition of cGMP uptake (cGMP: 5 uM, Trequinsin: 1 uM) in membrane vesicles from MRP5-expressing V79 cells; settings: hamster, probe cGMP (5 uM), read-out: Activity
MRP5 (ABCC5) [5] = biological target: T1, MRP5 (ABCC5); assay: TP_TRANSPORTER: inhibition of cGMP uptake (cGMP: 5 uM, Zaprinast: 10 uM) in membrane vesicles from MRP5-expressing V79 cells; settings: hamster, probe cGMP (5 uM), read-out: Activity

T1 sequence (O15440 whole entry): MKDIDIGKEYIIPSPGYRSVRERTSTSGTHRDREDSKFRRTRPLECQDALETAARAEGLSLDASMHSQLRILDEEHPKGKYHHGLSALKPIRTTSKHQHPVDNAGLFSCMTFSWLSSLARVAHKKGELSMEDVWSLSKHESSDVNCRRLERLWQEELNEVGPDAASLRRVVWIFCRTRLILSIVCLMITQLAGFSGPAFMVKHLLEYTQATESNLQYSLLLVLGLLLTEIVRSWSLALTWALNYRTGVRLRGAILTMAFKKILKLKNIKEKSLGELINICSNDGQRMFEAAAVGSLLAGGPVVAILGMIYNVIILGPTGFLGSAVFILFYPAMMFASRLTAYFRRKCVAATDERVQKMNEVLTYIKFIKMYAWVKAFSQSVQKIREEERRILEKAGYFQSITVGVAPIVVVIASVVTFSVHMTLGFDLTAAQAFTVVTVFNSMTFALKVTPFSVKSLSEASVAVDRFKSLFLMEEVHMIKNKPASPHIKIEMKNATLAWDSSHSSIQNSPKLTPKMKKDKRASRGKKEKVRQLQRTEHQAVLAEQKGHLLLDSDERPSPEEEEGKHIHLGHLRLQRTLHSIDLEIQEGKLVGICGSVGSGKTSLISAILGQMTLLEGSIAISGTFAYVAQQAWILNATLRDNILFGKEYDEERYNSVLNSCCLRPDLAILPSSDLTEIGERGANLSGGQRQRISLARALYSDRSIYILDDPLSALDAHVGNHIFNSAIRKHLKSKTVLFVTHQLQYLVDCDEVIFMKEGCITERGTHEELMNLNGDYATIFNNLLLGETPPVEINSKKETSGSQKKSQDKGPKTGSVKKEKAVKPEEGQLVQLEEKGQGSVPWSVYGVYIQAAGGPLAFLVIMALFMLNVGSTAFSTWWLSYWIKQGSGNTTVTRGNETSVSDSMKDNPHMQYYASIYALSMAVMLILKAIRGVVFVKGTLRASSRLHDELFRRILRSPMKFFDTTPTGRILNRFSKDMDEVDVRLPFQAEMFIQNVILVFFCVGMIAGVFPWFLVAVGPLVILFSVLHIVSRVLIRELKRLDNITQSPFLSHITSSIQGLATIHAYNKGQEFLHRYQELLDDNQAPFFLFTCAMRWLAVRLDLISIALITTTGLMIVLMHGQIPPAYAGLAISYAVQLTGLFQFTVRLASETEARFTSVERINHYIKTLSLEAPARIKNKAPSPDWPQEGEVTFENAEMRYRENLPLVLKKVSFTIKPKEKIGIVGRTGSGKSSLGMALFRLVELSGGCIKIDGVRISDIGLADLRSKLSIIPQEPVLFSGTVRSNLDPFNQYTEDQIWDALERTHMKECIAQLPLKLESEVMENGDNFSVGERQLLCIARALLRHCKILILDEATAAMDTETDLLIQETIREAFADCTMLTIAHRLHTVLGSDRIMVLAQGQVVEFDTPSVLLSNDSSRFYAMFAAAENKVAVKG
ATP-binding cassette sub-family C member 5, sequence (O15440 whole entry): as above

CCCc1nn(C)c2c(=O)[nH]c(-c3cc(S(=O)(=O)N4CCN(C)CC4)ccc3OCC)nc12
activity at 1 µM (MRP5 (ABCC5) [1]): 22%

CC(=O)Oc1ccc2c(c1)Oc1cc(OC(C)=O)ccc1C21OC(=O)c2ccccc21 [FLUORESCEIN DIACETATE]
activity at 50 µM (MRP5 (ABCC5) [2]): 49.2%

CCCN(CCC)S(=O)(=O)c1ccc(C(=O)O)cc1 [PROBENECID]
Activity [3]: 31.7%

COc1cc2c(cc1OC)-c1c/c(=N\c3c(C)cc(C)cc3C)n(C)c(=O)n1CC2 [TREQUINSIN]
activity at 1 µM (MRP5 (ABCC5) [4]): 26.2%

CCCOc1ccccc1-c1nc2nn[nH]c2c(=O)[nH]1 [ZAPRINAST]
activity at 10 µM (MRP5 (ABCC5) [5]): 41%
